Counter-ions that a name gives are not always drawn.
System: Drosophila KCNT1 mutant line G288S
Test: Bang-sensitive behavioral seizure assay, Drosophila KCNT1 mutant line G288S
Type: in vivo, Drosophila melanogaster
Conditions: drug in food
Description: The Drosophila melanogaster lines carrying the WT human KCNT1 transgene (NM_020822_3) or KCNT1 mutant G288S, R398Q or R928C transgene placed downstream of the yeast UAS promoter, have been described previously.[11] WT or mutant human UAS‐KCNT1 flies were crossed to flies expressing the GAL4 transcriptional activator under the control of the GAD1 promoter (GABAergic driver, Bloomington stock number 51630 P2) to drive expression of KCNT1 in GABAergic neurons, involved in neuronal inhibition.[11]
The bang‐sensitive behavioral assay (also known as the banging assay) was used to test for the presence of a seizure phenotype in Drosophila.[11], [30] Experiments were performed and scored, as previously described,[11] with a minimum of 50 Drosophila tested for each genotype and drug concentration.
Four drugs were selected for in vivo analysis to determine their effects on the seizure phenotypes in transgenic Drosophila lines with human mutant KCNT1 channels. […]
In all experiments, experimenters were not blinded to variants or treatments, nor were samples randomly assigned to groups. Sample sizes were not calculated in advance and no data were excluded from the analysis. Data were analyzed using GraphPad Prism 9 software (San Diego, CA, USA). […] All data passed normality and lognormality Shapiro–Wilk tests, determined by GraphPad Prism 9. […]

`O=C(OCCN1CCN(c2cccc(C(F)(F)F)c2)CC1)c1ccccc1Nc1ccnc2cc(C(F)(F)F)ccc12` [antrafenine] was tested, and the “reduction of the seizure phenotype” value was “at least 50%”.
In the case of `Cc1c(O)cccc1C(=O)N[C@@H](CSc1ccccc1)[C@H](O)CN1C[C@H]2CCCC[C@H]2C[C@H]1C(=O)NC(C)(C)C` [nelfinavir mesylate], the “reduction of the seizure phenotype” value is reported as 50%.
